# Compound: COc1cc(-c2nn([C@H]3CC[C@H](N4CCN(C(C)=O)CC4)CC3)c3ncnc(N)c23)ccc1NC(=O)c1cc2ccccc2n1C + O=C(CCCCCCC(=O)Nc1ccccc1)NO [Vorinostat] (partner 1 µM)
# Assay: relative viability (nuclei count vs DMSO), 5 days (fraction); higher = more cells survive
# Settings: first compound 0.0128 µM
# Procedure, shortened: (§1)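 After 5 days of treatment, lung cancer cells in 1536-well plates were fixed and stained in a single step (final 0.05% Triton X-100, 1% formaldehyde, 1 ug/ml Hoechst) and their nuclei counted on 4× images. Treatment had been applied by pin tool the day after seeding as one drug alone or as a fixed anchor-drug dose with five library-drug doses (not always all listed) in √10 steps. Relative viability is the nuclei count of treated wells divided by that of vehicle wells, and values are medians of duplicate plates.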
row,Cell Line,relative viability
1,LOU-NH91,0.987
2,ChaGo-K-1,0.802
3,NCI-H2405,1.01
4,HOP-62,1.01
5,LU99A,0.609
6,BEN,0.591
7,HARA,0.698
8,HCC-78,0.462
9,NCI-H322M,0.868
10,LCLC-97TM1,0.875
11,NCI-H2009,0.711
12,A-427,0.9
13,NCI-H441,0.968
14,NCI-H661,0.761
15,NCI-H1734,0.873
16,NCI-H460,0.735

row,Cell Line,relative viability
1,NCI-H2347,0.658
2,SK-LU-1,0.797
3,201T,1.01
4,NCI-H1915,0.651
5,HCC-827,0.72
6,LXF-289,0.898
7,NCI-H23,0.734
8,NCI-H647,0.422
9,CAL-12T,0.871
10,NCI-H1651,0.571
11,EPLC-272H,0.357
12,NCI-H2228,0.869
13,NCI-H1355,0.801
14,NCI-H3122,1.49
15,NCI-H1437,0.967

# Same assay, conditions: first compound 0.04048 µM
row,Cell Line,relative viability
1,LOU-NH91,0.921
2,ChaGo-K-1,0.768
3,NCI-H2405,0.886
4,HOP-62,0.546
5,LU99A,0.523
6,BEN,0.561
7,HARA,0.372
8,HCC-78,0.547
9,NCI-H322M,0.931
10,LCLC-97TM1,0.395
11,NCI-H2009,0.702
12,A-427,0.972
13,NCI-H441,0.958
14,NCI-H661,0.971
15,NCI-H1734,0.787
16,NCI-H460,0.983
17,NCI-H2347,0.499
18,SK-LU-1,0.763
19,201T,1.1
20,NCI-H1915,0.577
21,HCC-827,0.979
22,LXF-289,0.795
23,NCI-H23,0.51
24,NCI-H647,0.698
25,CAL-12T,0.706
26,NCI-H1651,0.618
27,EPLC-272H,0.345
28,NCI-H2228,0.609
29,NCI-H1355,0.639
30,NCI-H1437,1

# Same assay, conditions: first compound 0.128 µM
row,Cell Line,relative viability
1,LOU-NH91,0.909
2,ChaGo-K-1,0.679
3,NCI-H2405,0.834
4,HOP-62,0.601
5,LU99A,0.426
6,BEN,0.59
7,HARA,0.421
8,HCC-78,0.422
9,NCI-H322M,0.718
10,LCLC-97TM1,0.735
11,NCI-H2009,0.78
12,A-427,0.763
13,NCI-H441,0.847
14,NCI-H661,0.819
15,NCI-H1734,0.783
16,NCI-H460,0.642

row,Cell Line,relative viability
1,NCI-H2347,0.521
2,SK-LU-1,0.765
3,201T,0.909
4,NCI-H1915,0.507
5,HCC-827,0.765
6,LXF-289,0.734
7,NCI-H23,0.541
8,NCI-H647,0.606
9,CAL-12T,0.702
10,NCI-H1651,0.545
11,EPLC-272H,0.62
12,NCI-H2228,0.568
13,NCI-H1355,0.641
14,NCI-H3122,0.889
15,NCI-H1437,0.856

# Same assay, conditions: first compound 1.28 µM
row,Cell Line,relative viability
1,LOU-NH91,0.858
2,ChaGo-K-1,0.555
3,NCI-H2405,0.374
4,HOP-62,0.585
5,LU99A,0.628
6,BEN,0.483
7,HARA,0.325
8,HCC-78,0.298
9,NCI-H322M,0.745
10,LCLC-97TM1,0.968
11,NCI-H2009,0.751
12,A-427,0.856
13,NCI-H441,0.849
14,NCI-H661,1.01
15,NCI-H1734,0.852
16,NCI-H460,0.709

row,Cell Line,relative viability
1,NCI-H2347,0.543
2,SK-LU-1,0.724
3,201T,0.654
4,NCI-H1915,0.44
5,HCC-827,0.389
6,LXF-289,0.794
7,NCI-H23,0.519
8,NCI-H647,0.421
9,CAL-12T,0.753
10,NCI-H1651,0.495
11,EPLC-272H,0.457
12,NCI-H2228,0.527
13,NCI-H1355,0.625
14,NCI-H3122,0.861
15,NCI-H1437,0.864

# Compound: CO[C@@H]1[C@H](N(C)C(=O)c2ccccc2)C[C@H]2O[C@]1(C)n1c3ccccc3c3c4c(c5c6ccccc6n2c5c31)C(=O)NC4 [Midostaurin] + N=C(N)NC(=N)NCCc1ccccc1 [Phenformin] (partner 250 µM)
# Assay: as above
# Settings: first compound 0.01 µM
# Procedure, shortened: as §1
row,Cell Line,relative viability
1,LOU-NH91,0.755
2,ChaGo-K-1,0.439
3,NCI-H2405,0.415
4,HOP-62,0.586
5,LU99A,0.872
6,BEN,0.298
7,HARA,0.516
8,HCC-78,0.797
9,NCI-H322M,0.831
10,LCLC-97TM1,0.434
11,NCI-H2009,0.428
12,A-427,0.296
13,NCI-H441,0.914
14,NCI-H661,0.279
15,NCI-H1734,0.421
16,NCI-H460,0.492

row,Cell Line,relative viability
1,NCI-H2347,0.254
2,SK-LU-1,0.521
3,201T,0.447
4,NCI-H1915,0.35
5,HCC-827,0.364
6,LXF-289,0.519
7,NCI-H23,0.713
8,NCI-H647,0.533
9,CAL-12T,0.666
10,NCI-H1651,0.377
11,EPLC-272H,0.31
12,NCI-H2228,0.405
13,NCI-H1355,0.43
14,NCI-H3122,0.376
15,NCI-H1437,0.373

# Same assay, conditions: first compound 0.03162 µM
row,Cell Line,relative viability
1,LOU-NH91,0.701
2,ChaGo-K-1,0.533
3,NCI-H2405,0.441
4,HOP-62,0.66
5,LU99A,0.977
6,BEN,0.235
7,HARA,0.466
8,HCC-78,0.603
9,NCI-H322M,0.673
10,LCLC-97TM1,0.324
11,NCI-H2009,0.464
12,A-427,0.34
13,NCI-H441,0.773
14,NCI-H661,0.286
15,NCI-H1734,0.354
16,NCI-H460,0.507
17,NCI-H2347,0.384
18,SK-LU-1,0.54
19,201T,0.423
20,NCI-H1915,0.348
21,HCC-827,0.369
22,LXF-289,0.51
23,NCI-H23,0.798
24,NCI-H647,0.603
25,CAL-12T,0.527
26,NCI-H1651,0.4
27,NCI-H2228,0.363
28,NCI-H1355,0.443
29,NCI-H3122,0.369
30,NCI-H1437,0.285

# Same assay, conditions: first compound 0.1 µM
row,Cell Line,relative viability
1,LOU-NH91,0.764
2,ChaGo-K-1,0.522
3,NCI-H2405,0.377
4,HOP-62,0.69
5,LU99A,0.899
6,BEN,0.245
7,HARA,0.467
8,HCC-78,0.693
9,NCI-H322M,0.811
10,LCLC-97TM1,0.38
11,NCI-H2009,0.48
12,A-427,0.289
13,NCI-H441,0.747
14,NCI-H661,0.261
15,NCI-H1734,0.453
16,NCI-H460,0.561

row,Cell Line,relative viability
1,NCI-H2347,0.337
2,SK-LU-1,0.49
3,201T,0.468
4,NCI-H1915,0.352
5,HCC-827,0.449
6,LXF-289,0.49
7,NCI-H23,0.773
8,NCI-H647,0.473
9,CAL-12T,0.438
10,NCI-H1651,0.327
11,EPLC-272H,0.282
12,NCI-H2228,0.366
13,NCI-H1355,0.464
14,NCI-H3122,0.372
15,NCI-H1437,0.298

# Same assay, conditions: first compound 0.3162 µM
row,Cell Line,relative viability
1,LOU-NH91,0.798
2,ChaGo-K-1,0.529
3,NCI-H2405,0.491
4,HOP-62,0.646
5,LU99A,0.729
6,BEN,0.243
7,HARA,0.44
8,HCC-78,0.462
9,NCI-H322M,0.875
10,LCLC-97TM1,0.415
11,NCI-H2009,0.372
12,A-427,0.25
13,NCI-H441,0.768
14,NCI-H661,0.311
15,NCI-H1734,0.366
16,NCI-H460,0.534

row,Cell Line,relative viability
1,NCI-H2347,0.248
2,SK-LU-1,0.421
3,201T,0.47
4,NCI-H1915,0.352
5,HCC-827,0.422
6,LXF-289,0.505
7,NCI-H23,0.772
8,NCI-H647,0.433
9,CAL-12T,0.275
10,NCI-H1651,0.299
11,EPLC-272H,0.303
12,NCI-H2228,0.5
13,NCI-H1355,0.465
14,NCI-H3122,0.363
15,NCI-H1437,0.372

# Compound: COc1cc(-c2nn([C@H]3CC[C@H](N4CCN(C(C)=O)CC4)CC3)c3ncnc(N)c23)ccc1NC(=O)c1cc2ccccc2n1C + CC(C)C[C@H](NC(=O)[C@H](Cc1ccccc1)NC(=O)c1cnccn1)B(O)O [Bortezomib] (partner 0.002 µM)
# Assay: as above
# Settings: first compound 0.0128 µM
# Procedure, shortened: as §1
row,Cell Line,relative viability
1,LOU-NH91,0.498
2,ChaGo-K-1,0.922
3,NCI-H2405,0.939
4,HOP-62,0.845
5,LU99A,1.34
6,BEN,0.667
7,HARA,1.12
8,HCC-78,0.547
9,NCI-H322M,1.23
10,LCLC-97TM1,0.35
11,NCI-H2009,1.14
12,A-427,1.04
13,NCI-H441,0.591
14,NCI-H661,0.879
15,NCI-H1734,0.995
16,NCI-H460,1.14

row,Cell Line,relative viability
1,NCI-H2347,0.82
2,SK-LU-1,1.53
3,201T,1.14
4,NCI-H1915,1.05
5,HCC-827,0.831
6,LXF-289,1.07
7,NCI-H23,1.06
8,NCI-H647,1.13
9,CAL-12T,1.11
10,NCI-H1651,0.85
11,EPLC-272H,0.993
12,NCI-H2228,0.945
13,NCI-H1355,1.4
14,NCI-H3122,1.14
15,NCI-H1437,0.587

# Same assay, conditions: first compound 0.04048 µM
row,Cell Line,relative viability
1,LOU-NH91,0.522
2,ChaGo-K-1,1.13
3,HOP-62,0.883
4,LU99A,1.19
5,BEN,0.765
6,HARA,1.16
7,HCC-78,0.724
8,NCI-H322M,1.52
9,LCLC-97TM1,0.327
10,NCI-H2009,0.555
11,A-427,0.782
12,NCI-H441,0.823
13,NCI-H661,0.823
14,NCI-H1734,0.862
15,NCI-H460,1.26
16,NCI-H2347,1.07
17,SK-LU-1,1.22
18,201T,1.16
19,NCI-H1915,1.03
20,HCC-827,1.17
21,LXF-289,0.963
22,NCI-H23,0.682
23,NCI-H647,1.34
24,CAL-12T,0.943
25,NCI-H1651,0.949
26,EPLC-272H,0.933
27,NCI-H2228,1.08
28,NCI-H1355,1.23
29,NCI-H1437,0.522
